{
  "source": "patent US6444675B2",
  "about": "“4-alkyl and 4-cycloalkyl derivatives of dihydropyridine NPY antagonists” (Bristol-Myers Squibb Company, priority 2000, dated 2002)",
  "origin": "cited, not measured here",
  "key": {"[1]": {"biological_target": "T1, I-125 Bolton-Hunter labeled NPY in human neuroblastoma cells (SK-N-MC) (Homo sapiens, UniProt P25929)", "T1 construct": "displaces I-125 Bolton-Hunter labeled NPY in human neuroblastoma cells (SK-N-MC); host or cells: SK-N-MC human neuroblastoma cells (endogenous receptor)", "T1 sequence (P25929 1-384)": "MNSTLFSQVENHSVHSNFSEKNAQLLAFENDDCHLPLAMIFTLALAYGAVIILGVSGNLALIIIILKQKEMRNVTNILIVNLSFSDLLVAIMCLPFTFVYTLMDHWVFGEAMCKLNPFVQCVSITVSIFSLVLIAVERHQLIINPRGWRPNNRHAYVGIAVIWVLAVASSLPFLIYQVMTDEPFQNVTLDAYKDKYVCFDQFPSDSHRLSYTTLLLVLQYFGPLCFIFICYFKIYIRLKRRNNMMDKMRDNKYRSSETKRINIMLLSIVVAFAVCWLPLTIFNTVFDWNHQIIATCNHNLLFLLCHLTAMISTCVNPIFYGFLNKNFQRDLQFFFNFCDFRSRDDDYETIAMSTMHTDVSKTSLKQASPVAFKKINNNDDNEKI"}, "[2]": {"test_system": "NPY-induced increase in intracellular Ca++ in SK-N-MC cells"}, "[3]": {"test_system": "NPY-induced pressor response", "conditions": "pithed rat"}, "[4]": {"test_system": "NPY-induced contractions in guinea pig basilar artery"}, "[5]": {"biological_target": "T2, I-125 labeled NPY and PYY in human neuroblastoma cells (Homo sapiens, UniProt P25929)", "T2 construct": "displacing I-125 labeled NPY and PYY in human neuroblastoma cells; endogenous receptor", "T2 sequence (P25929 1-384)": "T1 sequence (P25929 1-384)"}, "[6]": {"test_system": "NPY-related increases in diastolic blood pressure", "conditions": "anesthetized guinea pig model"}},
  "data": [
    {"smiles": "NC(N)=NCCC[C@@H](NC(=O)C(c1ccccc1)c1ccccc1)C(=O)NCc1ccc(O)cc1", "note": "[BIBP 3226]", "values": [
      {"measurement": "displacement of I-125 Bolton-Hunter labeled NPY", "setting": "[1]", "value": "displaces"},
      {"measurement": "antagonism of NPY-induced increase in intracellular Ca++", "setting": "[2]", "value": "antagonized"},
      {"measurement": "antagonism of NPY-induced pressor response", "setting": "[3]", "value": "antagonizing"}
    ]},
    {"smiles": "O=P(O)(O)OC1[C@H](OP(=O)(O)O)[C@H](O)C(O)[C@H](O)[C@H]1OP(=O)(O)O", "note": "(stereo partly drawn) [D-Myo-inositol-1,2,6-triphosphate]", "values": [
      {"measurement": "antagonism of NPY-induced contractions", "setting": "[4]", "value": "potent but non-competitive antagonist"}
    ]},
    {"smiles": "CN(C)CC1CCC(CN=C(N)c2ccc(C[C@@H](NC(=O)[C@@H](Cc3ccccc3)NS(=O)(=O)c3ccc4ccccc4c3)C(=O)N3CCCC3)cc2)CC1", "note": "(stereo partly drawn) [SR 120819A]", "values": [
      {"measurement": "displacement of I-125 labeled NPY and PYY", "setting": "[5]", "value": "displacing"},
      {"measurement": "antagonism of NPY-related increases in diastolic blood pressure", "setting": "[6]", "value": "antagonized"}
    ]}
  ]
}
